Test results reported in patent publication US20190187129A1, “CANCER MODELING PLATFORMS AND METHODS OF USING THE SAME” (Wake Forest University Health Sciences, priority 2016, published 2019).

Experiments:
Assay type in all cases: cell-based
CACO2 cells = assay: cells; details: Homo sapiens, Caco-2, read-out: relative cellular viability (MTS, relative to control)
Protocol: (§1) Cancer cells seeded directly into wells were given 4-5 hours to reattach to the bottom of the wells. After that time, the anticancer drug solutions were administered in place of the media (FIG. 6, panel A) and an MTS assay was carried out 2 days later to determine cell viability. […] At 100 μM concentrations of Regorafenib and Sorafenib, and 100 mM concentrations of 5-FU, cellular viability remained below 20% that of the control for all four of the colorectal cancer cell lines utilized. However, screening with Dabrafenib and Trametinib produced diverging results from the other three anticancer drugs at higher concentrations. […] When treated with 1 mM concentrations of 5-FU, relative cellular viability was approximately 39% for SW480 cells and remained between 10%-22% for the HCT116, HT29, and CACO2 cells. These values were considerably lower than the relative cellular viability values for the lowest concentrations of the other anticancer drugs.
(§2) Cell Seeding: The original 15 mL centrifuge tubes containing the 10 mL of DMEM-10, cells, and trypsin were placed into a centrifuge. The centrifugation setting was 1500 RPM and at maximal acceleration for 5 minutes. After that time, the media and trypsin mixture was aspirated from the tubes, leaving the cell pellets still intact. 5 mL of DMEM-10 was then pipetted into each of the tubes, resuspending the cells in the process. Calculated volumes of the 5 mL cell-media solution were determined to ensure that 25,000 cells of each of the four colorectal cancer cell lines were seeded directly into each of the wells of a polystyrene clear-bottom 96-well plate. 100 μL of DMEM-10 media was then pipetted directly into the wells. The 96-well plates were incubated at 37° C. and 5% CO2 for 5 hours to allow the cells to reattach themselves to the bottom of the wells until media was aspirated and anticancer drug solutions were added.
(§3) Addition of Anticancer Drugs for Screening: The anticolorectal cancer drugs used in this screening included 5-FU, Regorafenib, Sorafenib, Trametinib, and Dabrafenib (Sigma-Aldrich, Missouri, USA)). High concentration drug stock solutions were created with DMSO. Lower concentration drug solutions were created by mixing the anticancer drug stocks with DMEM-10 media. […] drug solutions were generated for 5-FU; 1 μM, 10 μM, and 100 μM drug solutions were generated for Regorafenib, Sorafenib, and Dabrafenib; and 1 nM, 10 nM, and 100 nM drug solutions were generated for Trametinib. Media was carefully aspirated from the wells and 200 μL of the various drug-media solutions were placed into the wells containing cells. Three duplicates were generated for each anticancer drug concentration with each of the different cell types to calculate averages and run statistics on the data generated. Well plates were then incubated at 37° C. and 5% CO2 for […].
(§4) Cell viability assay: Cell viability was determined 48 hours after exposure to the anticancer drug solutions. The viability of the cells was examined by the CellTiter 96® AQueous One Solution Cell Proliferation (MTS) assay (Promega, Wisconsin, USA). The anticancer drug-media solutions were aspirated from the wells and 200 μL of the MTS reagent was carefully pipetted into the wells. The incubation time for the cells with the MTS reagent was approximately 45 minutes. The cell viability assay was performed on another 96-well plate and the absorbance was quantified by the EnVision Multilabel Plate Reader (PerkinElmer, California, USA).

HT29 cells = assay: cells; details: Homo sapiens, HT-29, read-out: relative cellular viability (MTS, relative to control)
Protocol: as §1, §2, §3, §4

HCT116 cells = assay: cells; details: Homo sapiens, HCT-116, read-out: relative cellular viability (MTS, relative to control)
Protocol: as §1, §2, §3, §4

[1] = test system: Ring constructs made with a Caco2 outer ring and a SW480 core; assay: Concentric ring construct drug treatment (MTS assay, LIVE/DEAD staining)
From the text: The first objective of this project was to evaluate a 3D model of a colorectal cancer tumor surrounded by normal host tissue. The engineered concentric ring construct consists of a colorectal tumor core and a colon epithelial outer ring, to model a tumor in a reductionist, yet physiologically relevant environment. This construct was used to measure the growth of the tumor core, any observed invasion of the tumor cells into the epithelial layer, and the efficacy of drugs. The constructs were created with cells suspended in a hyaluronic acid and gelatin-based hydrogel. The tumor cores were made using one of four colorectal cancer cells types, thereby providing models of 4 levels of malignancy. The HCT116 cells were the most malignant, followed by the HT29, SW480, and Caco2 cells. Caco2 cells were also employed in the outer ring, as they best resemble healthy epithelial cells. The tumor core was fluorescently labeled and fluorescent imaging was used to monitor the tumor core over the course of 7-14 days. […] Ring constructs made with a Caco2 outer ring and a SW480 core were also treated with Regorafenib, a chemotherapy agent.

For CNC(=O)c1cc(Oc2ccc(NC(=O)Nc3ccc(Cl)c(C(F)(F)F)c3)c(F)c2)ccn1 [Regorafenib], which viability at 100 µM (CACO2 cells) is on record?
Its viability at 100 µM is under 20%.

What about the viability at 100 µM (HT29 cells) of the same compound?
Its viability at 100 µM is under 20%.

And the viability at 100 µM (HCT116 cells)?
The viability at 100 µM was under 20%.

What about the “cells targeted within the ring construct (LIVE/DEAD staining)” value ([1]; inner ring versus outer Caco2 cells) of the same compound?
The value was “selectively targeted the inner ring of the construct”.

And the “amount of viable cells after treatment (MTS assay)” value ([1]; ring construct, Caco2 outer ring, SW480 core)?
The value was “decrease in the amount of viable cells”.
